Source: the NIST ThermoML archive (doi:10.1021/je0601457)

Assay: xn = mol fraction of the nth substance listed

Cc1cnccn1 [2-methylpyrazine] + O=C=O
Fluid (supercritical or subcritical phases), Linear displacement technique
Details | mass density [kg/m3]
294.85 K, 5860 kPa, x1 = 0.033 | 869
294.85 K, 6830 kPa, x1 = 0.017 | 749
294.85 K, 7760 kPa, x1 = 0.033 | 904
294.85 K, 8900 kPa, x1 = 0.017 | 777
294.85 K, 13000 kPa, x1 = 0.017 | 821
294.85 K, 13690 kPa, x1 = 0.033 | 969
294.95 K, 2450 kPa, x1 = 0.857 | 935
294.95 K, 3790 kPa, x1 = 0.857 | 942
294.95 K, 6860 kPa, x1 = 0.857 | 947
294.95 K, 11520 kPa, x1 = 0.857 | 950
295.05 K, 3900 kPa, x1 = 0.624 | 948
295.05 K, 7000 kPa, x1 = 0.624 | 952
295.05 K, 9660 kPa, x1 = 0.624 | 956
295.05 K, 14760 kPa, x1 = 0.624 | 965
295.35 K, 5310 kPa, x1 = 0.156 | 908
295.35 K, 7620 kPa, x1 = 0.156 | 910
295.35 K, 9620 kPa, x1 = 0.156 | 911
295.45 K, 5450 kPa, x1 = 0.264 | 901
295.45 K, 7900 kPa, x1 = 0.264 | 911
295.45 K, 12450 kPa, x1 = 0.264 | 926
295.45 K, 16590 kPa, x1 = 0.264 | 934
295.55 K, 6790 kPa, x1 = 0.122 | 998
295.55 K, 8790 kPa, x1 = 0.122 | 1010
295.55 K, 10590 kPa, x1 = 0.122 | 1019
295.55 K, 14410 kPa, x1 = 0.122 | 1036
295.85 K, 7140 kPa, x1 = 0.081 | 779
295.85 K, 9760 kPa, x1 = 0.081 | 781
295.85 K, 13170 kPa, x1 = 0.081 | 781
296.15 K, 7590 kPa, x1 = 0.339 | 964
296.15 K, 10550 kPa, x1 = 0.339 | 969
296.15 K, 16100 kPa, x1 = 0.339 | 976
296.35 K, 6310 kPa, x1 = 0.023 | 607
296.35 K, 6660 kPa, x1 = 0.023 | 614
296.35 K, 8930 kPa, x1 = 0.023 | 642
297.25 K, 5790 kPa, x1 = 0.062 | 854
297.25 K, 7550 kPa, x1 = 0.062 | 873
297.25 K, 9550 kPa, x1 = 0.062 | 894
297.25 K, 12830 kPa, x1 = 0.062 | 914
298.85 K, 6860 kPa, x1 = 0.039 | 804
298.85 K, 8520 kPa, x1 = 0.039 | 831
298.85 K, 11690 kPa, x1 = 0.039 | 873
301.55 K, 7930 kPa, x1 = 0.023 | 578
301.55 K, 10070 kPa, x1 = 0.023 | 604
301.55 K, 11520 kPa, x1 = 0.023 | 620
304.15 K, 6790 kPa, x1 = 0.156 | 795
304.15 K, 8030 kPa, x1 = 0.156 | 905
304.15 K, 10210 kPa, x1 = 0.156 | 906
304.15 K, 12210 kPa, x1 = 0.156 | 911
304.45 K, 7140 kPa, x1 = 0.091 | 913
304.45 K, 7830 kPa, x1 = 0.122 | 970
304.45 K, 8660 kPa, x1 = 0.091 | 927
304.45 K, 10170 kPa, x1 = 0.091 | 940
304.45 K, 10660 kPa, x1 = 0.122 | 989
304.45 K, 13690 kPa, x1 = 0.122 | 1006
304.55 K, 5690 kPa, x1 = 0.264 | 882
304.55 K, 6660 kPa, x1 = 0.264 | 885
304.55 K, 10380 kPa, x1 = 0.264 | 896
304.55 K, 13620 kPa, x1 = 0.264 | 907
305.05 K, 3620 kPa, x1 = 0.624 | 922
305.05 K, 5000 kPa, x1 = 0.624 | 926
305.05 K, 7480 kPa, x1 = 0.624 | 931
305.05 K, 10860 kPa, x1 = 0.624 | 937
305.05 K, 15480 kPa, x1 = 0.624 | 942
307.45 K, 8340 kPa, x1 = 0.339 | 950
307.45 K, 11280 kPa, x1 = 0.339 | 957
307.45 K, 16170 kPa, x1 = 0.339 | 965
307.55 K, 2720 kPa, x1 = 0.857 | 922
307.55 K, 4900 kPa, x1 = 0.857 | 926
307.55 K, 6860 kPa, x1 = 0.857 | 928
307.55 K, 11550 kPa, x1 = 0.857 | 934
309.15 K, 8070 kPa, x1 = 0.122 | 948
309.15 K, 11140 kPa, x1 = 0.122 | 972
309.15 K, 14720 kPa, x1 = 0.122 | 992
309.95 K, 8520 kPa, x1 = 0.017 | 652
309.95 K, 10170 kPa, x1 = 0.017 | 701
309.95 K, 11590 kPa, x1 = 0.017 | 724
311.75 K, 8520 kPa, x1 = 0.033 | 764
311.75 K, 10790 kPa, x1 = 0.033 | 831
311.75 K, 13310 kPa, x1 = 0.033 | 871
311.75 K, 15760 kPa, x1 = 0.033 | 905
315.25 K, 9690 kPa, x1 = 0.039 | 722
315.25 K, 10690 kPa, x1 = 0.039 | 749
315.25 K, 12660 kPa, x1 = 0.039 | 777
315.25 K, 14660 kPa, x1 = 0.039 | 812
315.45 K, 8620 kPa, x1 = 0.062 | 781
315.45 K, 11210 kPa, x1 = 0.062 | 824
315.45 K, 13170 kPa, x1 = 0.062 | 846
315.45 K, 16310 kPa, x1 = 0.062 | 879
316.45 K, 6030 kPa, x1 = 0.624 | 912
316.45 K, 10030 kPa, x1 = 0.624 | 917
316.45 K, 13210 kPa, x1 = 0.624 | 920
316.45 K, 17280 kPa, x1 = 0.624 | 926
317.55 K, 11280 kPa, x1 = 0.091 | 882
317.55 K, 14550 kPa, x1 = 0.091 | 913
317.55 K, 16520 kPa, x1 = 0.091 | 930
317.85 K, 8520 kPa, x1 = 0.156 | 887
317.85 K, 11140 kPa, x1 = 0.156 | 898
317.85 K, 12310 kPa, x1 = 0.156 | 899
317.95 K, 7340 kPa, x1 = 0.264 | 858
317.95 K, 9000 kPa, x1 = 0.264 | 863
317.95 K, 11830 kPa, x1 = 0.264 | 872
317.95 K, 15410 kPa, x1 = 0.264 | 882
320.75 K, 10340 kPa, x1 = 0.122 | 910
320.75 K, 11760 kPa, x1 = 0.122 | 924
320.75 K, 14380 kPa, x1 = 0.122 | 944
322.95 K, 4760 kPa, x1 = 0.857 | 905
322.95 K, 8520 kPa, x1 = 0.857 | 909
322.95 K, 12620 kPa, x1 = 0.857 | 914
322.95 K, 17030 kPa, x1 = 0.857 | 918
325.15 K, 7000 kPa, x1 = 0.339 | 932
325.15 K, 10590 kPa, x1 = 0.339 | 941
325.15 K, 15280 kPa, x1 = 0.339 | 952
326.65 K, 11620 kPa, x1 = 0.039 | 667
326.65 K, 12280 kPa, x1 = 0.039 | 690
326.65 K, 13620 kPa, x1 = 0.039 | 725
327.35 K, 10790 kPa, x1 = 0.091 | 808
327.35 K, 11520 kPa, x1 = 0.091 | 822
327.35 K, 13340 kPa, x1 = 0.091 | 848
327.35 K, 15830 kPa, x1 = 0.091 | 875
328.75 K, 9900 kPa, x1 = 0.156 | 872
328.75 K, 11000 kPa, x1 = 0.156 | 878
328.75 K, 13900 kPa, x1 = 0.156 | 890
329.15 K, 10450 kPa, x1 = 0.017 | 407
329.15 K, 11930 kPa, x1 = 0.017 | 574

Liquid, linear displacement
Details | mass density [kg/m3]
294.85 K, x1 = 0.017 | 721
294.85 K, x1 = 0.033 | 864
294.95 K, x1 = 0.857 | 930
295.05 K, x1 = 0.624 | 944
295.35 K, x1 = 0.156 | 906
295.45 K, x1 = 0.264 | 883
295.55 K, x1 = 0.122 | 947
295.85 K, x1 = 0.081 | 779
296.15 K, x1 = 0.339 | 928
296.35 K, x1 = 0.023 | 599
297.25 K, x1 = 0.062 | 845
298.85 K, x1 = 0.039 | 787
301.55 K, x1 = 0.023 | 549
304.15 K, x1 = 0.156 | 901
304.45 K, x1 = 0.091 | 901
304.45 K, x1 = 0.122 | 954
304.55 K, x1 = 0.264 | 881
305.05 K, x1 = 0.624 | 919
307.45 K, x1 = 0.339 | 937
307.55 K, x1 = 0.857 | 916
309.15 K, x1 = 0.122 | 934
309.95 K, x1 = 0.017 | 621
311.75 K, x1 = 0.033 | 747
315.25 K, x1 = 0.039 | 682
315.45 K, x1 = 0.062 | 766
316.45 K, x1 = 0.624 | 907
317.55 K, x1 = 0.091 | 841
317.85 K, x1 = 0.156 | 885
317.95 K, x1 = 0.264 | 856
320.75 K, x1 = 0.122 | 890
322.95 K, x1 = 0.857 | 900
325.15 K, x1 = 0.339 | 929
326.65 K, x1 = 0.039 | 595
327.35 K, x1 = 0.091 | 794
328.75 K, x1 = 0.156 | 868
